Measured values published in US20240132519A1, “NRF2-ACTIVATING COMPOUND” (SENJU PHARMACEUTICAL CO., LTD., priority 2020, published 2024).

Target: binding between NRF2 and KEAP1 (Homo sapiens (Human), UniProt Q14145)
Assay: Binding assay: inhibition of binding between NRF2 and KEAP1 by BRET (NanoLuc-NRF2 and KEAP1-HaloTag cell lysates)
Settings: Test Example 1-1; NRF2-KEAP1 BRET; N=2
Procedure: The inhibitory activity of each compound on the binding between NRF2 and KEAP1 was measured by bioluminescence resonance energy transfer (BRET) assay. A plasmid having human NRF2 (Original Clone ID: ha01449s1) sequence fused with NanoLuc (19 kDa, Promega) at the N-terminal was transduced into HCE-T cells (immortalized human corneal epithelial cells) using FuGENE HD (Promega). 48 hours after transduction, the cell lysate was collected and used as an NRF2-expressing cell lysate. A plasmid having human KEAP1 (Original Clone ID: cs00328) sequence fused with HaloTag (33 kDa, Promega) at the C-terminal was transduced into HCE-T cells using FuGENE HD (Promega). After 24 hours, HaloTag Nano BRET 618 Ligand (Promega) was added to the medium. The cell lysate cultured for 24 hours after the addition was used as a KEAP1-expressing cell lysate.
The NRF2-expressing cell lysate and the KEAP1-expressing cell lysate were adjusted so that the luminescence and fluorescence intensities per well were constant. Tables 1 and 2 show the formulation of each reaction solution.
Each test substance at a concentration 100 times higher than the test concentration was dissolved in dimethylsulfoxide for adjustment. 49 μL of KEAP1 solution was added to a 96-well polystyrene microplate (FALCON) to which 1 μL of each test substance solution was added, followed by incubation for 15 minutes. Then, 50 μL of NRF2 solution was added to the above solution, followed by incubation for 1 hour. To measure the binding between NRF2 and KEAP1, NanoBRET Nano-Glo Substrate (Promega) diluted with Opti-Mem (Thermo Fisher Scientific) was added, followed by shaking for 30 seconds. Then, luminescence and fluorescence were measured using the GloMax Discover System (Promega). A 495-nm short pass filter and a 600-nm long pass filter were respectively used to measure donor and acceptor emission values. A value obtained by dividing the acceptor emission value by the donor emission value was regarded as BRET value. A BRET value when the compound was not added, and a BRET value when the KEAP1 solution was not added were respectively used as binding rates of 100% and 0%, and the binding rate when the compound was added was calculated. Further, using this binding rate, the 50% binding inhibitory activity concentration (IC50) was calculated from the following formula. The test was performed at N=2.
IC50(M)=10^(LOG(A/B)×(50−C)/(D−C)+LOG(B)) • A: higher concentration out of 2 close concentrations across the inhibition rate of 50% • B: lower concentration out of 2 close concentrations across the inhibition rate of 50% • C: inhibition rate at B • D: inhibition rate at A
Compounds A1/A2, compounds B1/B2, compounds C1/C2, and compounds D1/D2 were used as test substances. Binding assay and reporter assay were performed as in Test Example 1-1 and Test Example 1-2.

Chain of binding between NRF2 and KEAP1 (Q14145 whole entry): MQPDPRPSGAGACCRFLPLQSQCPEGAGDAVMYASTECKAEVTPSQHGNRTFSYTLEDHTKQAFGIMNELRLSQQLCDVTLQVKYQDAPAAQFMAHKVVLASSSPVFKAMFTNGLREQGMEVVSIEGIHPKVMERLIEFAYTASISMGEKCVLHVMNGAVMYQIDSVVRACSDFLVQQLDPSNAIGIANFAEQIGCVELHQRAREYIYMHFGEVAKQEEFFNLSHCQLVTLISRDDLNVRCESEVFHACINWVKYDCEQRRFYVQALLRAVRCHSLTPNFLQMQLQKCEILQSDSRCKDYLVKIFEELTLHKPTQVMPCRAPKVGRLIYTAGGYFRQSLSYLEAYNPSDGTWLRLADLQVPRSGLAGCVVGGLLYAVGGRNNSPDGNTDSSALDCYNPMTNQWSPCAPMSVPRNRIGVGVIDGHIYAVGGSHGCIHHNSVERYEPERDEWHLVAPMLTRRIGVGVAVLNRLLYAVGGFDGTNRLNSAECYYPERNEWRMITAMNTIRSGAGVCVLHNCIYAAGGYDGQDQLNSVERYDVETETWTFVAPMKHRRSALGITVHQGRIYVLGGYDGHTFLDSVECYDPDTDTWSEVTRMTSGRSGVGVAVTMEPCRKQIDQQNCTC

Row | Molecule | IC50
1 | 3-(3-{[(R)-4-ethyl-1,1-dioxide-3,4-dihydro-2H-benzo[b][1,4,5]oxathiazepin-2-yl]methyl}-4-methylphenyl)-3-(5-sulfamoylthiophen-2-yl)propanoic acid [Compound 18] | 35 nM
2 | 3-[5-(cyclopropanecarbonyl)thiophen-2-yl]-3-(3-{[(R)-4-ethyl-1,1-dioxide-3,4-dihydro-2H-benzo[b][1,4,5]oxathiazepin-2-yl]methyl}-4-methylphenyl)propanoic acid [Compound 20] | 24 nM
3 | CC[C@@H]1CN(Cc2cc(C(c3ccc(C(C)=O)s3)C(C)C(=O)O)ccc2C)S(=O)(=O)c2ccccc2O1 (stereo partly drawn) [Compound 1, 3-(5-acetylthiophen-2-yl)-3-(3-{[(R)-4-ethyl-1,1-dioxide-3,4-dihydro-2H-benzo[b][1,4,5]oxathiazepin-2-yl]methyl}-4-methylphenyl)-2-methylpropanoic acid] | 0.24 nM
4 | CC[C@@H]1CN(Cc2cc(C(c3cc(C(C)=O)cs3)C(C)C(=O)O)ccc2C)S(=O)(=O)c2ccccc2O1 (stereo partly drawn) [Compound 3, 3-(4-acetylthiophen-2-yl)-3-(3-{[(R)-4-ethyl-1,1-dioxide-3,4-dihydro-2H-benzo[b][1,4,5]oxathiazepin-2-yl]methyl}-4-methylphenyl)-2-methylpropanoic acid] | 0.17 nM
5 | CC[C@@H]1CN(Cc2cc(C(c3cc(OC)c(C(C)=O)s3)C(C)(C)C(=O)O)ccc2C)S(=O)(=O)c2ccccc2O1 (stereo partly drawn) [Compound 4, 3-(5-acetyl-4-methoxythiophen-2-yl)-3-(3-{[(R)-4-ethyl-1,1-dioxide-3,4-dihydro-2H-benzo[b][1,4,5]oxathiazepin-2-yl]methyl}-4-methylphenyl)-2,2-dimethylpropanoic acid] | 0.41 nM
6 | CC[C@@H]1CN(Cc2cc(C(CC(=O)O)c3ccc(C(C)=O)s3)ccc2C)S(=O)(=O)c2ccccc2O1 (stereo partly drawn) [Compound 5, 3-(5-acetylthiophen-2-yl)-3-(3-{[(R)-4-ethyl-1,1-dioxide-3,4-dihydro-2H-benzo[b][1,4,5]oxathiazepin-2-yl]methyl}-4-methylphenyl)propanoic acid] | 0.23 nM

Continued, values first:

Row | IC50 | Molecule
7 | 0.27 nM | CC[C@@H]1CN(Cc2cc(C(c3ccc(C(C)=O)s3)C(C)(C)C(=O)O)ccc2C)S(=O)(=O)c2ccccc2O1 (stereo partly drawn) [Compound 6, 3-(5-acetylthiophen-2-yl)-3-(3-{[(R)-4-ethyl-1,1-dioxide-3,4-dihydro-2H-benzo[b][1,4,5]oxathiazepin-2-yl]methyl}-4-methylphenyl)-2,2-dimethylpropanoic acid]
8 | 0.36 nM | CC[C@@H]1CN(Cc2cc(C(CC(=O)O)c3cc(C)c(C(C)=O)s3)ccc2C)S(=O)(=O)c2ccccc2O1 (stereo partly drawn) [Compound 7, 3-(5-acetyl-4-methylthiophen-2-yl)-3-(3-{[(R)-4-ethyl-1,1-dioxide-3,4-dihydro-2H-benzo[b][1,4,5]oxathiazepin-2-yl]methyl}-4-methylphenyl)propanoic acid]
9 | 0.36 nM | CC[C@@H]1CN(Cc2cc(C(CC(=O)O)c3cc(F)c(C(C)=O)s3)ccc2C)S(=O)(=O)c2ccccc2O1 (stereo partly drawn) [Compound 8, 3-(5-acetyl-4-fluorothiophen-2-yl)-3-(3-{[(R)-4-ethyl-1,1-dioxide-3,4-dihydro-2H-benzo[b][1,4,5]oxathiazepin-2-yl]methyl}-4-methylphenyl)propanoic acid]
10 | 0.3 nM | CC[C@@H]1CN(Cc2cc(C(c3ccc(C(C)=O)s3)C(C)(C)C(=O)O)ccc2C)S(=O)(=O)c2c(F)cccc2O1 (stereo partly drawn) [Compound 9, 3-(5-acetylthiophen-2-yl)-3-(3-{[(R)-4-ethyl-9-fluoro-1,1-dioxide-3,4-dihydro-2H-benzo[b][1,4,5]oxathiazepin-2-yl]methyl}-4-methylphenyl)-2,2-dimethylpropanoic acid]
11 | 0.3 nM | CC[C@@H]1CN(Cc2cc(C(CC(=O)O)c3cc(C(C)=O)cs3)ccc2C)S(=O)(=O)c2ccccc2O1 (stereo partly drawn) [Compound 10, 3-(4-acetylthiophen-2-yl)-3-(3-{[(R)-4-ethyl-1,1-dioxide-3,4-dihydro-2H-benzo[b][1,4,5]oxathiazepin-2-yl]methyl}-4-methylphenyl)propanoic acid]
